Like-named read-outs stand apart in the source and are kept apart here. Each block holds one compound with its values, some of them ahead of it.
Assays:
[1] = system: nucleotide pyrophosphatase activity; experiment: Nucleotide pyrophosphatase activity in mock fucosyltransferase assays; type: biochemical; conditions: 5 mM in standard assay cocktail
Experimental: ATP (5 mM) was therefore included in all assays to inhibit nucleotide pyrophosphatase activity. […] Each enzyme source was incubated for 1 to 4 h at 37° C. in 20 μl of standard assay cocktail, but in the absence of phenyl-β-D-galactoside. After the reactions were terminated, an aliquot of each was spotted on Whatman No. 3MM, fractionated by descending paper chromatography for 20 h in solvent B, and radioactivity was determined as described above. Authentic GDP-[^14C]fucose, [^14C]fucose-1-phosphate, and L-[^14C]fucose standards were chromatographed in parallel. This system separates GDP-fucose, fucose-1-phosphate, and fucose. It therefore allows quantitation of the amount of GDP-[^14C]fucose remaining at the end of the incubation, and thus provides an estimate of pyrophosphatase activity. Under the standard assay conditions, more than 97% of the GDP-[^14C]fucose initially present in each mock reaction remained unhydrolyzed and available for transglycosylation.

[2] = molecular target: T1, recombinant human (α1,2)fucosyltransferase (Homo sapiens, UniProt P19526); experiment: Apparent Michaelis constants of recombinant (α1,2)fucosyltransferase expressed in COS-1 cells; type: biochemical
T1 construct: expressed in transfected cells; host or cells: COS-1 cells, transient DEAE-dextran transfection, cell extracts
T1 sequence (P19526 1-365): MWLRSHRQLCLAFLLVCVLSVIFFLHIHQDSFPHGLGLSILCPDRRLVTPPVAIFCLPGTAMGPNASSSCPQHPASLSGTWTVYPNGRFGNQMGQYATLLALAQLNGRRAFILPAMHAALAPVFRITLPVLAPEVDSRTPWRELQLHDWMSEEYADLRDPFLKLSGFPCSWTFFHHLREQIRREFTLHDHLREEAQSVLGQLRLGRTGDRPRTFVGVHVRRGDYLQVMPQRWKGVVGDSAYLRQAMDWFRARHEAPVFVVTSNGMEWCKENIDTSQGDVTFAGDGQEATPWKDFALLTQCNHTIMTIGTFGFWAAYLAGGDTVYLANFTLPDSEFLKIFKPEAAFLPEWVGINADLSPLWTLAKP
Experimental: (§1) Fucosyltransferase assays were performed by a modification of the procedure reported by Chester et al. (Chester et al, Eur. J. Biochem., 69: 583-593, 1976). The standard assay contained GDP-[^14]fucose (3 μM) phenyl-β-D-galactoside (25 mM), ATP (5 mm) and the enzyme solution (1-10 μl) in 20 μl of 25 mM sodium phosphate buffer, pH 6.1. Based upon preliminary assays, amounts of added enzyme activities were adjusted to ensure that reactions were linear throughout the period of incubation (4 h for fractionated serum, 2 h for each of the other enzyme preparations). Under these conditions, less than 15% of the substrate was consumed during the incubation period. […] The final pH value of each reaction was determined with a micro pH probe. […] The concentration of GDP-fucose in this stock solution was calculated from the UV absorbance at 254 nm of an aliquot diluted in water. […] The supernatant contained virtually 100% of the radiolabelled product; this was collected, and an aliquot was used for separation and quantitation of the fucosylated product using the hydrophobic interaction chromatography method described below. […] This background acceptor “activity” was always less than 3% of the radioactivity incorporated into the phenyl-β-D-galactoside acceptor. […] Intercepts were calculated by the least squares estimation method. […]

[3] = system: (α1,2)fucosyltransferase; experiment: (α1,2)Fucosyltransferase assay, substrate and effector tests; type: biochemical
Experimental: as §1

[4] = system: monoclonal anti-H antibody; experiment: Hapten inhibition of anti-H antibody binding to mH1-12 cells (indirect immunofluorescence); parameters: species or system mouse; conditions: antibody preincubated with hapten, 20 mM
Experimental: Immunofluoroscence was performed on cells plated on 8-well tissue culture chamber slides (Lab-Tek). Cells were plated at a density of 5×10^4/well 24 h prior to analysis. Anti-H and anti-A primary antibodies were diluted in PBS containing bovine serum albumin at 2 mg/ml, to a final concentration of 10 μg/ml. Cell-bound primary antibodies were detected with FITC-conjugated goat anti-mouse IgM, diluted to 40 μg/ml in PBS containing 2 mg/ml bovine serum albumin.
Hapten Inhibition—Plated cells were washed twice with PBS, and were incubated for 30 min at 4° C. with 100 μl of diluted anti-H antibody, or with 100 μl of diluted antibody containing different oligosaccharide haptens, each at a concentration of 20 mM. The chambers were then washed twice, and 100 μl of FITC-conjugated goat anti-mouse IgM was added. After 30 min at 4° C., the chambers were washed three times with PBS, and the cells were fixed at room temperature for 10 min in 3.7% formaldehyde in PBS. The cells were washed twice with PBS, the chambers were removed, and the slide was mounted in PBS containing 25% glycerol. Cells were examined by fluorescence microscopy using a Zeiss Axiophot photomicroscope equipped with fluorescence epiillumination.

[5] = system: α-fucosidase activity; experiment: α-Fucosidase activity in enzyme preparations; type: biochemical; conditions: 10 mM; fractionated human serum and mouse intestinal mucosa extracts
Experimental: Each enzyme preparation was also tested for α-fucosidase activity that could hydrolyze the [^14C]fucosylphenyl-β-D-galactoside product and prevent accurate determination of (α1,2)fucosyltransferase activity. Enzyme preparations were incubated with purified [^14C]fucosylphenyl-β-D-galactoside (7000 cpm, 10 pmol) in fucosyltransferase assay buffer, but in the absence of added GDP-[^14C]fucose or phenyl-β-D-galactoside. These reactions were incubated at 37° C. for various times, and were then fractionated by the Sep-Pak method to determine the amount of remaining [^14C]fucosylphenyl-β-D-galactoside. Fractionated human serum and mouse intestinal mucosa extracts each contained significant α-fucosidase activity. […] Therefore 10 mM L-fucose was included when assaying these enzyme sources. Significant amounts of α-fucosidase activity were not detected in any of the other cell extracts; product hydrolysis never exceeded 1%/h under the standard assay conditions.

[6] = molecular target: T2, blood group H (α1,2)fucosyltransferase (Homo sapiens, UniProt P19526); experiment: Apparent Km for the blood group H (α1,2)fucosyltransferase; type: biochemical; conditions: determined by the inventor; read-out: apparent Km for phenyl-β-D-galactoside
T2 sequence (P19526 1-365): T1 sequence (P19526 1-365)
Experimental: Serum was prepared from freshly drawn blood obtained from a non-Secretor individual. The blood was clotted in a glass tube at 37° C. for 1 h and was immediately fractionated by ammonium sulfate precipitation exactly as described. The 20%-40% ammonium sulfate fraction was dialyzed against 2 changes of 4 liters of water (8 h each) at 4° C. Assay of (α1,2)fucosyltransferase was done immediately. Alternatively, the fractionated serum was aliquoted and stored at −20° C. until use.
Fucosyltransferase assays were performed by a modification of the procedure reported by Chester et al. (Chester et al, Eur. J. Biochem., 69: 583-593, 1976). […] The final pH value of each reaction was determined with a micro pH probe. […] The concentration of GDP-fucose in this stock solution was calculated from the UV absorbance at 254 nm of an aliquot diluted in water. […] The supernatant contained virtually 100% of the radiolabelled product; this was collected, and an aliquot was used for separation and quantitation of the fucosylated product using the hydrophobic interaction chromatography method described below. […] This background acceptor “activity” was always less than 3% of the radioactivity incorporated into the phenyl-β-D-galactoside acceptor. […] Intercepts were calculated by the least squares estimation method.

[7] = molecular target: T3, (α1,2)fucosyltransferase found in human milk (Se locus) (Homo sapiens, UniProt Q10981); experiment: Apparent Km for the human milk (α1,2)fucosyltransferase; type: biochemical; conditions: human milk enzyme; read-out: apparent Km for phenyl-β-D-galactoside
T3 sequence (Q10981 29-343 limits assumed): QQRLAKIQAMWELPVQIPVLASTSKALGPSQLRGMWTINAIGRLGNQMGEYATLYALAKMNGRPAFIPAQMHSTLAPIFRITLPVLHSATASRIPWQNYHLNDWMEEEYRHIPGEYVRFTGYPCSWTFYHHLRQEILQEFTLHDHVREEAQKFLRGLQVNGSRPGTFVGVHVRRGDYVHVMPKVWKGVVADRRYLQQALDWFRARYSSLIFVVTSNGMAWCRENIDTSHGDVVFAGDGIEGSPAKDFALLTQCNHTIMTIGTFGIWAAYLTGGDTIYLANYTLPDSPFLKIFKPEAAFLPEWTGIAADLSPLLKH
Experimental: (α1,2)Fucosyltransferase was isolated from human milk by published procedures. Briefly, 300 ml of milk from a Se-positive donor was defatted by centrifugation and was extensively dialyzed against 20 MM sodium cacodylate, pH 6.0. This was applied to a column (2.6×115 cm) of sulfopropyl-Sephadex equilibrated in 20 mM cacodylate, pH 6.0. The column was then washed with 1 liter of 20 mM cacodylate, pH 6.0, and was eluted with a linear gradient made from 1.5 liter each of 20 mM cacodylate, pH 6.0, and 500 mM NaCl in 20 mM cacodylate, pH 6.0. Fractions (13 ml) were collected and assayed for (α1,2)fucosyltransferase activity using phenyl-β-D-galactoside acceptor as described below. […]
Fucosyltransferase assays were performed by a modification of the procedure reported by Chester et al. (Chester et al, Eur. J. Biochem., 69: 583-593, 1976). […] The final pH value of each reaction was determined with a micro pH probe. […] The concentration of GDP-fucose in this stock solution was calculated from the UV absorbance at 254 nm of an aliquot diluted in water. […] The supernatant contained virtually 100% of the radiolabelled product; this was collected, and an aliquot was used for separation and quantitation of the fucosylated product using the hydrophobic interaction chromatography method described below. […] Intercepts were calculated by the least squares estimation method.

[8] = system: Griffonia simplicifolia isolectin I B4 (GS I-B4); experiment: Hapten inhibition of FITC-GS I-B4 staining of COS-1 cells transfected with pCDM7-αGT; type: binding; conditions: 50 mM raffinose
Experimental: COS-1 cells transfected with plasmid DNAs were harvested 48-72-hr after transfection. These were stained with either fluorescein isothiocyanate-conjugated GS I-B4 at 10 μg per ml in staining media or with fluorescein isothiocyanate-conjugated GS I-B4 that had been previously incubated with 50 mM raffinose. Cells were then subjected to analysis by fluorescence-activated cell sorting as described above.

[9] = system: F9 teratocarcinoma cells; experiment: (α1-3)GT specific activity in retinoic acid-differentiated F9 cells; type: cell-based, mouse

Compound: Nc1ncnc2c1ncn2[C@@H]1O[C@H](COP(=O)(O)OP(=O)(O)OP(=O)(O)O)[C@@H](O)[C@H]1O [ATP]
- inhibition of nucleotide pyrophosphatase activity [1]: Effective inhibition

Compound: C[C@H](O)[C@@H](O)[C@@H](O)[C@H](O)C=O [L-fucose]
- inhibition of anti-H antibody binding to mH1-12 cells by hapten [4]: does not inhibit
- inhibition of α-fucosidase activity [5]: effectively inhibited
- effect on (α1,2)fucosyltransferase activity ([3]; 10 mM, reconstruction experiments with cell extracts): does not alter the activity

Compound: OC[C@H]1O[C@H](OC[C@H]2O[C@H](O[C@]3(CO)O[C@H](CO)[C@@H](O)[C@@H]3O)[C@H](O)[C@@H](O)[C@@H]2O)[C@H](O)[C@@H](O)[C@H]1O [raffinose]
- inhibition of GS I-B4 staining by hapten [8]: inhibited

Compound: CC1=C(/C=C/C(C)=C/C=C/C(C)=C/C(=O)O)C(C)(C)CCC1 [retinoic acid]
- specific activity of (α1-3)GT versus untreated F9 cells [9]: approximately 4 fold

Now from value to compound:

- Km ([2]; COS-1 cells transfected with pH3.4, phenyl-β-D-galactoside 25 mM, read-out: apparent Km for GDP-fucose): 17.5 µM
Compound: C[C@@H]1O[C@H](OP(=O)(O)OP(=O)(O)OC[C@H]2O[C@@H](n3cnc4c(=O)[nH]c(N)nc43)[C@H](O)[C@@H]2O)[C@@H](O)[C@H](O)[C@@H]1O [GDP-fucose]

- activity as a substrate for (α1,2)fucosyltransferase [3]: inactive
Compound: C[C@@H]1O[C@H](OP(=O)(O)OP(=O)(O)OC[C@H]2O[C@@H](n3cnc4c(=O)[nH]c(N)nc43)[C@H](O)[C@@H]2O)[C@@H](O)[C@H](O)[C@@H]1O [GDP-β-L-fucose]

- Km ([2]; COS-1 cells transfected with pCDM7-α(1,2)FT, GDP-[14C]fucose 3 μM, read-out: apparent Km for phenyl-β-D-galactoside): 2400 µM
- Km [6]: 3100 µM
- Km [7]: 15100 µM
Compound: OC[C@H]1O[C@@H](Oc2ccccc2)[C@H](O)[C@@H](O)[C@H]1O [phenyl-β-D-galactoside]
